The record followed here is paper PMC3290907 (Evidence-based Complementary and Alternative Medicine : eCAM, 2012).

In this assay the target is T1, PDE4 (homogenate of guinea pig lungs or hearts).
T1 construct: gene PDE4A; native enzyme activity in lung or heart homogenate; subtype not resolved; other PDE families may be present
Put plainly: [3H]-cAMP hydrolysis, two-step radioassay, Lineweaver-Burk. Conditions: cAMP substrate; 3 mM MgCl2; pH 7.4; 37°C; competitive; lung or heart homogenate. Type of assay: biochemical, Cavia porcellus.

As usually defined, the Ki is a measure of affinity in units of concentration, obtained from inhibition or displacement. A lower Ki goes with higher affinity. `COc1ccc([C@@H]2CC(=O)c3c(O)cc(O)cc3O2)cc1O` [hesperetin, 5,7,3′-trihydroxy-4′-methoxyflavanone] displayed an inhibition constant (Ki) of 45.6 ± 2.3 µM.
